Consider 2 compounds from patent US4279915A, “Method of treatment using new leurosine derivatives” (priority 1973, dated 1981).

The LD50 is the dose at which mortality reaches 50%.

Series [1] is described as follows: acute toxicity in Swiss mice. The class given is in vivo, mouse. Conditions: mouse, in vivo, Swiss mice. The text has this: ACUTE TOXICITY IN SWISS MICE
Table III lists the comparative toxicological data concerning Vincristine, Vinblastine and F-leurosine. The new analogue is approximately 7 times less toxic than Vincristine and 4 times less toxic than Vinblastine in acute rodent experiments.

For the next series, the system named is Harding Passey melanoma. The following applies: cited from earlier work.
The next series deals with VX-2 rabbit epitheloma. The following applies: cited from earlier work.
The subject of another series is rhabdomyo-sarcoma. Conditions: cited from earlier work.
For a further series, the system named is cancer. The following applies: animal tests and human therapy; cited from earlier work.

Take `CC[C@]1(O)C[C@@H]2CN(CCc3c([nH]c4ccccc34)[C@@](C(=O)OC)(c3cc4c(cc3OC)N(C)[C@H]3[C@@](O)(C(=O)OC)[C@H](OC(C)=O)[C@]5(CC)C=CCN6CC[C@]43[C@@H]65)C2)C1` [Vinblastine, vincaleucoblastine]: the LD50 in series [1] (ip, 1 x i.p.) is 7.6 mg/kg; in series [1] (iv, 1 x i.v.), 15 mg/kg. Also, the “treatability with hitherto known cytostatics” value is recorded as “could hardly be treated, if at all” in the series with Harding Passey melanoma; “could hardly be treated, if at all” in the series on VX-2 rabbit epitheloma; “could hardly be treated, if at all” with rhabdomyo-sarcoma.

`CC[C@]1(O)C[C@H]2CN(CCc3c([nH]c4ccccc34)[C@@](C(=O)OC)(c3cc4c(cc3OC)N(C=O)[C@H]3[C@@](O)(C(=O)OC)[C@H](OC(C)=O)[C@]5(CC)C=CCN6CC[C@]43[C@@H]65)C2)C1` [Vincristine, leurocristine]: the LD50 was found to be 4 mg/kg in series [1] (ip, 1 x i.p.) and 3 mg/kg in series [1] (iv, 1 x i.v.). The “treatability with hitherto known cytostatics” value with Harding Passey melanoma was “could hardly be treated, if at all”; with VX-2 rabbit epitheloma, “could hardly be treated, if at all”; with rhabdomyo-sarcoma it was “could hardly be treated, if at all”. Besides, the “activity relative to vinblastine” value in the series on cancer is “more active both in animal tests, and, primarily, in human therapy”.
